Data published in patent publication US20240000772A1, “MICROSPHERE FORMULATIONS COMPRISING NALTREXONE AND METHODS FOR MAKING AND USING THE SAME” (Oakwood Laboratories, LLC, priority 2021, published 2024).
In brackets after ≈: the same amount, converted by molar mass. Counter-ions that a name gives are not always drawn. Like-named read-outs stand apart in the source and are kept apart here.

Assays:
[1] = Solubility of naltrexone in solvents; type: physicochemical
Excerpt: (§1) In one aspect, the naltrexone is a free base.
In another aspect, the naltrexone is an HCl salt.

pKa of naltrexone = type: physicochemical
Excerpt: as §1

Structure (SMILES) | solubility ([1]; naltrexone HCl salt, in water, read-out: water solubility) | solubility ([1]; benzyl alcohol, organic solvent or mixture, naltrexone free base, in BA, read-out: benzyl alcohol (BA) solubility) | solubility ([1]; dichloromethane, organic solvent or mixture, naltrexone free base, in DCM, read-out: dichloromethane (DCM) solubility) | solubility ([1]; ethyl acetate, organic solvent or mixture, naltrexone free base, in EA, read-out: ethyl acetate (EA) solubility) | pKa (pKa of naltrexone)
O=C1CC[C@@]2(O)[C@H]3Cc4ccc(O)c5c4[C@@]2(CCN3CC2CC2)[C@H]1O5 [naltrexone HCl salt] | ~100 mg/mL | – | – | – | –
O=C1CC[C@@]2(O)[C@H]3Cc4ccc(O)c5c4[C@@]2(CCN3CC2CC2)[C@H]1O5 [naltrexone, Naltrexone] | – | > 250 mg/mL | 100 mg/mL (≈ 293 mM) | 26 mg/mL (≈ 76.2 mM) | 8.4
